Measured values as given in publication PMC4531110 (Chemical biology & drug design, 2015).
Entries after “also recorded” stand apart in the source; their conditions may differ. Where two headings read alike, the source gives them in different places.

Experiments:
[1] = tested on: A/WSN/33 influenza virus (WSN-Ren luciferase virus) in MDCK-HA cells; settings: for IC50/CC50: ratio of WSN-Ren IC50 to ATPlite CC50
[2] = tested on: A/WSN/33 influenza virus (WSN-Ren luciferase virus) in MDCK-HA cells; settings: cell-based viral replication (luciferase) assay; cited from earlier work
[3] = tested on: MDCK cells; settings: cited from earlier work
[4] = tested on: influenza RNA promoter; type: binding, influenza A virus; settings: for line broadening of the imino protons of U27: 1D 1H NMR; for Kd: pH 6; for binding to the RNA promoter (1D 1H NMR, imino protons of U26, G13): 30 or 50 μM RNA promoter
[5] = tested on: WSN-Ren luciferase virus; assay: Viral replication assay by RT-PCR, WSN nucleoprotein mRNA level in MDCK-HA cells; type: cell-based, influenza A virus; settings: 50 μM, standardized against beta-actin, vs DMSO
[6] = target: influenza RNA promoter; settings: from peak intensity of imino protons of U26, G13 and G24; cited from earlier work
[7] = in vitro; settings: dog
[8] = tested on: wild-type influenza virus (A/Puerto Rico/8/1935); type: cell-based
[9] = tested on: MDCK cells
[10] = ATPlite assay for cytotoxicity assessment; settings: dog, MDCK cells (results text: MDCK-HA cells)

Compound | IC50/CC50 [1] | line broadening of the imino protons of U27 [4] | Kd [4] [µM] | binding to the RNA promoter (1D 1H NMR, imino protons of U26, G13) [4] | CC50 at 24 h [7] [µM] | other results
COc1cc2nc(N3CCNCC3)nc(N)c2cc1OC [Compound 1, 6,7-dimethoxy-2-(1-piperazinyl)-4-quinazolinamine] | <0.55 | caused line broadening of the imino protons of U27 | 61.5 | – | – | IC50 [2]: 549 µM; CC50 [3]: > 1000 µM; inhibition of viral nucleoprotein mRNA production [5]: not effective; Kd [6]: 50.5 ± 9 µM
COc1cc2nc(N3CCN(C(=O)CNC(=O)CNC(=O)CN)CC3)nc(N)c2cc1OC [Compound 3, 2-amino-N-(2-((2-(4-(4-amino-6,7-dimethoxyquinazolin-2-yl)piperazin-1-yl)-2-oxoethyl)amino)-2-oxoethyl)acetamide] | – | caused line broadening of the imino protons of U27 | 132 | bound to the influenza RNA promoter; also recorded: compound binding to the RNA promoter | > 250 | –
COc1cc2nc(N3CCN(C(=O)CCCCN)CC3)nc(N)c2cc1OC [Compound 4, 5-amino-1-(4-(4-amino-6,7-dimethoxyquinazolin-2-yl)piperazin-1-yl)pentan-1-one] | – | caused line broadening of the imino protons of U27 | – | bound to the influenza RNA promoter; also recorded: compound binding to the RNA promoter | > 250 | –
COc1cc2nc(N3CCN(S(C)(=O)=O)CC3)nc(N)c2cc1OC [Compound 5, 6,7-dimethoxy-2-(4-(methylsulfonyl)piperazin-1-yl)quinazolin-4-amine] | – | caused line broadening of the imino protons of U27 | – | bound to the influenza RNA promoter; also recorded: compound binding to RNA promoter | > 250 | –
CCC(=O)N1CCN(c2nc(N)c3cc(OC)c(OC)cc3n2)CC1 [Compound 6, 1-(4-(4-amino-6,7-dimethoxyquinazolin-2-yl)piperazin-1-yl)propan-1-one] | <0.16 | – | 114 | compound binding to RNA promoter | > 250 | –
COc1cc2nc(N3CCN(C(=O)C(C)C)CC3)nc(N)c2cc1OC [Compound 7, 1-(4-(4-amino-6,7-dimethoxyquinazolin-2-yl)piperazin-1-yl)-2-methylpropan-1-one] | <0.14 | caused line broadening of the imino protons of U27 | 158 | compound binding to RNA promoter | > 250 | IC50 [1]: 33.9 ± 23.2 µM
CCCC(=O)N1CCN(c2nc(N)c3cc(OC)c(OC)cc3n2)CC1 [Compound 8, 1-(4-(4-amino-6,7-dimethoxyquinazolin-2-yl)piperazin-1-yl)butan-1-one] | <0.18 | – | 44.4 | compound binding to RNA promoter | > 250 | IC50 [1]: 44.2 ± 11.3 µM
COc1cc2nc(N3CCN(C(=O)CCO)CC3)nc(N)c2cc1OC [Compound 9, 1-(4-(4-amino-6,7-dimethoxyquinazolin-2-yl)piperazin-1-yl)-3-hydroxypropan-1-one] | – | caused line broadening of the imino protons of U27 | – | bound to the influenza RNA promoter; also recorded: compound binding to RNA promoter | > 250 | –
COc1cc2nc(N3CCN(C(=O)C4CC4)CC3)nc(N)c2cc1OC [Compound 10, (4-(4-amino-6,7-dimethoxyquinazolin-2-yl)piperazin-1-yl)(cyclopropyl)methanone] | <0.14 | – | 127 | compound binding to RNA promoter | > 250 | IC50 [1]: 34.2 ± 17.2 µM; inhibition of A/PR8 nucleoprotein mRNA level [8]: significant dose-dependent inhibitory activity; also recorded: showed inhibitory effects
COc1cc2nc(N3CCN(C(=O)C(C)OC)CC3)nc(N)c2cc1OC (centres unmarked) [Compound 11, 1-(4-(4-amino-6,7-dimethoxyquinazolin-2-yl)piperazin-1-yl)-2-methoxypropan-1-one] | – | caused line broadening of the imino protons of U27 | – | bound to the influenza RNA promoter; also recorded: compound binding to RNA promoter | > 250 | –
COc1cc2nc(N3CCN(C(=O)C45CC6CC(CC(C6)C4)C5)CC3)nc(N)c2cc1OC [Compound 12, (1r,3R,5S)-adamantan-1-yl(4-(4-amino-6,7-dimethoxyquinazolin-2-yl)piperazin-1-yl)methanone] | >15.24 | – | – | bound to the influenza RNA promoter; also recorded: compound binding to RNA promoter | – | IC50 [1]: > 250 µM; CC50 [9]: 16.4 µM
COc1cc2nc(N3CCN(C(=O)C4CCCO4)CC3)nc(N)c2cc1OC (centres unmarked) [Compound 13, (4-(4-amino-6,7-dimethoxyquinazolin-2-yl)piperazin-1-yl)(tetrahydrofuran-2-yl)methanone] | – | – | – | – | – | CC50 at 24 h [10]: > 250 µM
COc1cc2nc(N3CCN(C(=O)c4ccco4)CC3)nc(N)c2cc1OC [Compound 14, (4-(4-amino-6,7-dimethoxyquinazolin-2-yl)piperazin-1-yl)(furan-2-yl)methanone] | 0.36 | caused line broadening of the imino protons of U27 | – | compound binding to RNA promoter | – | CC50 at 24 h [10]: 78.2 µM
COc1cc2nc(N3CCN(C(=O)c4cccs4)CC3)nc(N)c2cc1OC [Compound 15, (4-(4-amino-6,7-dimethoxyquinazolin-2-yl)piperazin-1-yl)(thiophen-2-yl)methanone] | 0.25 | – | 221 | compound binding to RNA promoter | 67 | –
COc1cc2nc(N3CCN(C(=O)c4ccccc4)CC3)nc(N)c2cc1OC [Compound 16, (4-(4-amino-6,7-dimethoxyquinazolin-2-yl)piperazin-1-yl)(phenyl)methanone] | <0.43 | – | 321 | compound binding to RNA promoter | > 250 | –
CCOC(=O)C1=C[C@@H](OC(CC)CC)[C@H](NC(C)=O)[C@@H](N)C1 [Oseltamivir phosphate, oseltamivir phosphate, reference compound] | – | – | – | – | – | inhibition of A/PR8 nucleoprotein mRNA level [8]: showed inhibitory effects
